Assay [1] relates to Glo-Response ARE-luc2P HEK293 cell line. The assay can be described thus: ARE luciferase reporter cell-based assay.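 Further: luciferase signal tracks Nrf2 activation of the ARE once compounds disrupt KEAP1-Nrf2 binding, read with One-Glo reagent, DMSO serving as low control.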 The settings on record: Homo sapiens, HEK293, 24 h, average of results obtained. On the technique in general: A reporter such as luciferase makes a cellular process visible.
For assay [2], the target named is Kelch domain of human KEAP1 (321-624 aa) (Homo sapiens (Human), UniProt Q14145). The assay can be described thus: KEAP1 KELCH ThermoFluor binding assay.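 Further: Ligand-induced melting temperature shift of E. coli-expressed KEAP1 Kelch protein, Kd estimated from concentration-response curves of ΔTm.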 As to conditions: KEAP Kelch […], 1,8-ANS, pH 7.0, average of results obtained, read-out: Tf Kd. (In DSF a fluorescence change marks the thermal transition of the protein.)

Structures are written as SMILES.

Chain of Kelch domain of human KEAP1 (321-624 aa) (Q14145 321-624): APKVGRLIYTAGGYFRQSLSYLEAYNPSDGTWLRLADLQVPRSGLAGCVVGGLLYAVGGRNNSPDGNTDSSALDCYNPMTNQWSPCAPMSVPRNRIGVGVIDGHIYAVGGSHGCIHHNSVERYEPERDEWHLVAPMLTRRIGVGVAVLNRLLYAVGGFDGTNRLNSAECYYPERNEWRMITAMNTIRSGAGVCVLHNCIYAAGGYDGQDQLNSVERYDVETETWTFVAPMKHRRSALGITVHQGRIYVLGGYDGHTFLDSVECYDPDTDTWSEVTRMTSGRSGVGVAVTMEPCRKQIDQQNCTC

A word on the EC50: it is the concentration giving half of the maximal effect. A lower EC50 goes with an effect from little substance. For orientation: Kd means the free concentration of one partner at which half of the binding sites on the other are occupied at equilibrium, for simple one-to-one binding. Take `Cc1ccc([C@H](CC(=O)O)c2ccc3c(nnn3C3CC3)c2C)cc1CN1C[C@@H]2COCCN2c2ncccc2S1(=O)=O` (single isomer, unassigned) [Example 24, (*S)-3-(1-Cyclopropyl-4-methyl-1H-benzo[d][1,2,3]triazol-5-yl)-3-(3-(((*R)-5,5-dioxido-7a,8,10,11-tetrahydro-[1,4]oxazino[3,4-d]pyrido[2,3-f][1,2,5]thiadiazepin-6(7H)-yl)methyl)-4-methylphenyl)propanoic Acid]: the 50% effective concentration (EC50) in assay [1] worked out at 4.1 nM. The Kd in assay [2] is 0.264 nM.
With `Cc1ccc(C(CC(=O)O)c2ccn3c(C(F)(F)F)nnc3c2C)cc1CN1C[C@@H]2CCCCN2c2ncccc2S1(=O)=O` (stereo in doubt) [Example 289, 3-(3-(((*S)-5,5-Dioxido-7,7a,8,9,10,11-hexahydro-6H-dipyrido[2,1-d:2′,3′-f][1,2,5]thiadiazepin-6-yl)methyl)-4-methylphenyl)-3-(8-methyl-3-(trifluoromethyl)-[1,2,4]triazolo[4,3-a]pyridin-7-yl)propanoic Acid], it took 19.3 nM to reach a half-maximal effect in assay [1] (EC50). In addition, the dissociation constant (Kd) in assay [2] is less than 1 nM.
Regarding `Cc1ccc([C@@H](c2ccn3c(C4CC4)nnc3c2C)C(C)(C)C(=O)O)cc1CN1CC2(CCOCC2)Oc2ncccc2S1(=O)=O` (single isomer, unassigned) [Example 41, (*S)-3-(3-Cyclopropyl-8-methyl-[1,2,4]triazolo[4,3-a]pyridin-7-yl)-3-(3-((1′,1′-dioxido-2,3,5,6-tetrahydrospiro[pyran-4,4′-pyrido[2,3-b][1,4,5]oxathiazepin]-2′(3′H)-yl)methyl)-4-methylphenyl)-2,2-dimethylpropanoic Acid], in assay [1], a half-maximal effect (EC50) was put at 46 nM. The Kd in assay [2] was less than 1 nM.
`Cc1ccc([C@H](CC(=O)O)c2ccn3c(C(F)(F)F)nnc3c2C)cc1CN1CC2CCCCN2c2ncc(C#N)cc2S1(=O)=O` (stereo in doubt) [Example 312, (*S)-3-(3-((3-Cyano-5,5-dioxido-7,7a,8,9,10,11-hexahydro-6H-dipyrido[2,1-d:2′,3′-f][1,2,5]thiadiazepin-6-yl)methyl)-4-methylphenyl)-3-(8-methyl-3-(trifluoromethyl)-[1,2,4]triazolo[4,3-a]pyridin-7-yl)propanoic Acid] gave an EC50 in assay [1] of 13.1 nM. In addition, in assay [2], the Kd is less than 1 nM.
Consider `Cc1ccc([C@@H](CC(=O)O)c2ccn3c(C(F)F)nnc3c2C)cc1CN1C[C@@H]2CCCN2c2ncc(C#N)cc2S1(=O)=O` (single isomer, unassigned) [Example 544, (*R)-3-(3-(((S)-3-Cyano-5,5-dioxido-7a,8,9,10-tetrahydropyrido[2,3-f]pyrrolo[2,1-d][1,2,5]thiadiazepin-6(7H)-yl)methyl)-4-methylphenyl)-3-(3-(difluoromethyl)-8-methyl-[1,2,4]triazolo[4,3-a]pyridin-7-yl)propanoic Acid], for which the EC50 in assay [1] is 278 nM. For the same molecule, the Kd in assay [2] was less than 1 nM.
For `Cc1cnc2c(c1)S(=O)(=O)N(Cc1cc([C@H](c3ccn4c(C(F)(F)F)nnc4c3C)C(C)(C)C(=O)O)ccc1C)CC1(CC1)O2` (single isomer, unassigned) [Example 315, (*R)-2,2-Dimethyl-3-(4-methyl-3-((8′-methyl-1′,1′-dioxidospiro[cyclopropane-1,4′-pyrido[2,3-b][1,4,5]oxathiazepin]-2′(3′H)-yl)methyl)phenyl)-3-(8-methyl-3-(trifluoromethyl)-[1,2,4]triazolo[4,3-a]pyridin-7-yl)propanoic Acid] the same measures were 148 nM and 287 nM.
The molecule `Cc1ccc([C@H](CC(=O)O)c2ccc3c(nnn3CC3CC3)c2C)cc1CN1CC2(COC2)Oc2ncccc2S1(=O)=O` (single isomer, unassigned) [Example 69, (*S)-3-(1-(Cyclopropylmethyl)-4-methyl-1H-benzo[d][1,2,3]triazol-5-yl)-3-(3-((1′,1′-dioxidospiro[oxetane-3,4′-pyrido[2,3-b][1,4,5]oxathiazepin-2′(3′H)-yl)methyl)-4-methylphenyl)propanoic Acid] came in with an EC50 in assay [1] of 28.5 nM. For the same molecule, in assay [2], the Kd is 0.16 nM.
For `Cc1ccc([C@H](c2ccn3c(C(F)(F)F)nnc3c2C)C(C)(C)C(=O)O)cc1CN1CC2(CCNCC2)Oc2ncccc2S1(=O)=O` (single isomer, unassigned) [Example 337, (*R)-3-(3-((1′,1′-Dioxidospiro[piperidine-4,4′-pyrido[2,3-b][1,4,5]oxathiazepin]-2′(3′H)-yl)methyl)-4-methylphenyl)-2,2-dimethyl-3-(8-methyl-3-(trifluoromethyl)-[1,2,4]triazolo[4,3-a]pyridin-7-yl)propanoic Acid] the same measures were greater than 20 nM and greater than 10000 nM.
In the case of `Cc1ccc([C@H](c2ccn3c(C(F)(F)F)nnc3c2C)C(C)(C)C(=O)O)cc1CN1CC2(CCOCC2)Oc2nc(OCCN3CCNCC3)ccc2S1(=O)=O` (single isomer, unassigned) [Example 368, (*R)-3-(3-((1′,1′-Dioxido-7′-(2-(piperazin-1-yl)ethoxy)-2,3,5,6-tetrahydrospiro[pyran-4,4′-pyrido[2,3-b][1,4,5]oxathiazepin]-2′(3′H)-yl)methyl)-4-methylphenyl)-2,2-dimethyl-3-(8-methyl-3-(trifluoromethyl)-[1,2,4]triazolo[4,3-a][pyridine-7-yl)propanoic Acid], the EC50 in assay [1] came to 256 nM. Besides, in assay [2], the Kd is less than 1 nM.
The molecule `CC[C@@H]1CN(Cc2cc([C@H](CC(=O)O)c3ccn4c(C(F)(F)F)nnc4c3)ccc2C)S(=O)(=O)c2cccnc2O1` (single isomer, unassigned) [Example 257, (*S)-3-(3-(((R)-4-Ethyl-1,1-dioxido-3,4-dihydro-2H-pyrido[2,3-b][1,4,5]oxathiazepin-2-yl)methyl)-4-methylphenyl)-3-(3-(trifluoromethyl)-[1,2,4]triazolo[4,3-a]pyridin-7-yl)propanoic Acid] had an EC50 in assay [1] of 574 nM. Besides, the Kd in assay [2] was less than 1 nM.
In turn, `Cc1ccc([C@H](CC(=O)O)c2ccn3c(C(F)F)nnc3c2C)cc1CN1CC2(CC2)Oc2ncc(C(N)=O)cc2S1(=O)=O` (single isomer, unassigned) [Example 552, (*S)-3-(3-((8′-Carbamoyl-1′,1′-dioxidospiro[cyclopropane-1,4′-pyrido[2,3-b][1,4,5]oxathiazepin]-2′(3′H)-yl)methyl)-4-methylphenyl)-3-(3-(difluoromethyl)-8-methyl-[1,2,4]triazolo[4,3-a]pyridin-7-yl)propanoic Acid] came in with an EC50 in assay [1] greater than 20000 nM. In addition, the Kd in assay [2] was 150 nM.
In the same order, the values of `Cc1ccc([C@@H](CC(=O)O)c2ccc3c(nnn3CC3CC3)c2C(F)F)cc1CN1CC2CCCN2c2ncccc2S1(=O)=O` (stereo in doubt) [Example 68, (*R)-3-(1-(Cyclopropylmethyl)-4-(difluoromethyl-1H-benzo[d][1,2,3]triazol-5-yl)-3-(3-((R-5,5-dioxido-7a,8,9,10-tetrahydropyridi[2,3-f]pyrrolo[2,1-d][1,2,5]thiadiazepin-6(7H)-yl)methyl)-4-methylphenyl)propanoic Acid] are 250 nM and 1.4 nM.
In the same order, the values of `CCn1nnc2c(C)c([C@H](c3ccc(C)c(CN4CC5(CCOCC5)Oc5ncc(C)cc5S4(=O)=O)n3)C(C)(C)C(=O)O)ccc21` (single isomer, unassigned) [Example 557, (*S)-3-(1-Ethyl-4-methyl-1H-benzo[d][1,2,3]triazol-5-yl)-2,2-dimethyl-3-(5-methyl-6-((8′-methyl-1′,1′-dioxido-2,3,5,6-tetrahydrospiro[pyran-4,4′-pyrido[2,3-b][1,4,5]oxathiazepin]-2′(3′H)-yl)methyl)pyridin-2-yl)propanoic Acid] are 0.56 nM and less than 1 nM.
`Cc1ccc([C@@H](CC(=O)O)c2ccn3c(C(F)(F)F)nnc3c2C)nc1CN1CC2(COC2)Oc2ncccc2S1(=O)=O` (single isomer, unassigned) [Example 494, (*S)-3-(6-((1′,1′-Dioxidospiro[oxetane-3,4′-pyrido[2,3-b][1,4,5]oxathiazepin]-2′(3′H)-yl)methyl)-5-methylpyridin-2-yl)-3-(8-methyl-3-(trifluoromethyl)-[1,2,4]triazolo[4,3-a]pyridin-7-yl)propanoic Acid] gave an EC50 in assay [1] of 577 nM. Besides, the equilibrium dissociation constant (Kd) in assay [2] is less than 1 nM.
As to `Cc1ccc([C@H](CC(=O)O)c2ccn3c(C(F)F)nnc3c2C)cc1CN1C[C@H]2CCCN2c2ncccc2S1(=O)=O` (single isomer, unassigned) [Example 450, (*S)-3-(3-(Difluoromethyl)-8-methyl-[1,2,4]triazolo[4,3-a]pyridin-7-yl)-3-(3-(((R)-5,5-dioxido-7a,8,9,10-tetrahydropyrido[2,3-f]pyrrolo[2,1-d][1,2,5]thiadiazepin-6(7H)-yl)methyl)-4-methylphenyl)propanoic Acid], the midpoint of the response in assay [1], the EC50, lay at 25.1 nM. The Kd in assay [2] was less than 1 nM.
In the same order, the values of `Cc1ccc([C@@H](CC(=O)O)c2ccn3c(C(F)F)nnc3c2C)cc1CN1CC2(CC2)Oc2ncc(Cl)cc2S1(=O)=O` (single isomer, unassigned) [Example 531, (*R)-3-(3-((8′-Chloro-1′,1′-dioxidospiro[cyclopropane-1,4′-pyrido[2,3-b][1,4,5]oxathiazepin]-2′(3′H)-yl)methyl)-4-methylphenyl)-3-(3-(difluoromethyl)-8-methyl-[1,2,4]triazolo[4,3-a]pyridin-7-yl)propanoic Acid] are 113 nM and less than 1 nM.
Consider `Cc1ccc([C@@H](CC(=O)O)c2ccn3c(C(F)(F)F)nnc3c2C)cc1CN1C[C@H]2CN(C)CCN2c2ncccc2S1(=O)=O` (single isomer, unassigned) [Example 182, (*R)-3-(4-Methyl-3-(((*R)-9-methyl-5,5-dioxido-7,7a,8,9,10,11-hexahydro-6H-pyrazino[2,1-d]pyrido[2,3-f][1,2,5]thiadiazepin-6-yl)methyl)phenyl)-3-(8-methyl-3-(trifluoromethyl)-[1,2,4]triazolo[4,3-a]pyridin-7-yl)propanoic Acid], for which the EC50 in assay [1] amounted to 1390 nM. Further, the Kd in assay [2] stood at 180 nM.

The values are drawn from patent US10947252B2, “Inhibitors of KEAP1-Nrf2 protein-protein interaction” (Janssen Pharmaceutica NV, priority 2018, dated 2021).
